Source: patent US20230151434A1, “REAWAKENING OF DORMANT TUMOR CELLS BY MODIFIED LIPIDS DERIVED FROM STRESS ACTIVATED NEUTROPHILS” (The Wistar Institute of Anatomy and Biology, priority 2020, published 2023)
Entries after “also recorded” stand apart in the source; their conditions may differ.

Tests used:
[1] = system: A549^cisA and OVCAR3^cisA cells; experiment: In vitro co-culture of chemotherapy-arrested human tumor cells with human PMN; format: cell-based
Method: (§1) The KPr cell line (16) was maintained in RPMI 1640 medium (Corning) and 10% FBS (Gibco). Treatment of KPr cells with 250 nM 4-hydroxytamoxifen (4-OHT, Sigma-Aldrich) induced p53 expression. p53-induced cells (KPr^p53) were stained with CellTrace dye for 20 min at 37° C. according to the manufacturer's instructions (Life Technologies) and seeded at 8500 cells/cm^2 in culture in a T175 tissue culture-treated flask (Gibco). After 7 days, cells were detached and sorted based on the CellTrace dye intensity as proliferating (KPr^p53P, with lower CellTrace) and arrested cells (KPr^p53A, with higher-intensity CellTrace; see FIG. 1A for representative image). LL2 cells were seeded at 1000 cells/cm2 and treated for 3 days with 2.5 μM cisplatin (Selleckchem). After that, cells were stained with CellTrace and sorted as described above. OVCAR3 cell senescence was induced by treating 5×10^4 cells/cm2 with 0.5 μM cisplatin for 72 hours. After that time, cells were stained with CellTrace and sorted. A549 senescence was induced by 72-hour treatment with 4 μM cisplatin and cells were sorted after staining with CellTrace. Time points for sorting were chosen as the best to observe separation between arrested and proliferating cells. Cells were sorted on Astrios (Beckman Coulter) or Melody (Becton Dickinson) fluorescence-activated cell sorters.
(§2) Arrested tumor cells were plated at 100 cells/cm^2 in a 48-well tissue culture-treated plate (Costar) for coculture experiments. After 24 hours, PMN-MDSC or PMN were added at indicated ratios. Cocultures were maintained for 48 hours in RPMI 1640+10% FBS in the presence of mouse recombinant GM-CSF (10 ng/ml; Rocky Hill) to ensure neutrophil viability. All control conditions were in the presence of media with GM-CSF. All indicated supplements (NE, S100A8/A9, BGJ398, ICI 118-551, IL-2, MPO inhibitor, LPS, lipids, PMA, and thapsigargin 1 μM) were added to culture at the same time as PMN and maintained for 48 hours. After that, media were removed and replaced by fresh media without GM-CSF. After 1 week, GFP^+ cells in wells were counted via an inverted microscope. When lipid extracts were used, lipids were added to dormant cells in culture at 1 to 0.05 or 0.01 nmol as indicated in each experiment.

[2] = system: LL2^cisA cells; experiment: In vivo stress induction, C57BL/6 mice injected with LL2^cisA cells; design: species or system mouse
Text: A total of 2.5×10^4 KPr^p53A cells were intravenously injected to NOD/SCID mice. Beginning 3 weeks after injection, mice were imaged weekly. Luciferin (PerkinElmer) was intraperitoneally injected in mice before imaging according to the manufacturer's instruction. Mice were imaged with IVIS Spectrum In Vivo Imaging System (IVIS, PerkinElmer) to detect luminescent signal coming from growing cancer cells. Mice were put under anesthesia in the induction chamber with isoflurane vaporizer set to 2.5%, at a flow rate of ˜1.5 liters/min. Mice were then transferred in the IVIS imaging stage nose cone inside the IVIS manifold (IVIS manifold nose cones flow set to ˜0.25 LPM). Animals were monitored by video during imaging. Once the images of luciferase/luciferin activity were acquired, the anesthesia was turned off and the animals were returned to their cages. […] Analysis and quantification were performed with IVIS imaging system Living Image Software 4.7.4 (PerkinElmer). […] When signal was detected, mice were sacrificed, and bioluminescent images of the harvested lung were taken. […] If no bioluminescence was detected in lungs after 80 days from last PMN injection, experiments were terminated, and lung tissue were collected. […] Bioluminescence was not detected in any LL2^CisA-injected mice at 3 weeks after injection. Mice were treated with PMN or PMN-MDSC and analyzed as described above. […]

[3] = system: KPr, KPr^p53P and KPr^p53A^react cells; experiment: Cell proliferation (luciferase activity); format: cell-based, mouse; conditions: 5 or 10 μM
Method: Two thousand cells per well were seeded in 96-well clear bottom plate in triplicate (Lonza). Sixteen hours after seeding, NE (Sigma-Aldrich) at 0.5 to 5 μM final concentration or BGJ398 at 0.75 μM final concentration (Selleckchem) was added to culture. To test the effect of BGJ398t on KPr^p53A^React cells, escalating doses ranging from 0 to 10 μM final concentrations were used. To detect luciferase activity (proportional to number of cells in culture), Luciferin (PerkinElmer) was added 1:200 from stock according to the manufacturer's instructions and luminescence was measured with a Victor spectrophotometer (PerkinElmer).

[4] = system: LL2^cisA and AT-3^DoxA cells; experiment: In vitro co-culture of chemotherapy-arrested mouse tumor cells with PMN; format: cell-based; conditions: LLC^cisA
Method: as §1, §2

[5] = system: KPr^p53A cells; experiment: In vitro co-culture of dormant tumor cells with PMN (count of GFP+ cells); format: cell-based, mouse; conditions: KPr^p53A
Method: as §1, §2

[6] = system: patients with prostate cancer; conditions: cited from earlier work

SMILES | reactivation of A549^cisA cells by PMN treated with S100A8/A9 or NE, effect of FGFR blockade ([1]; A549^cisA) | reactivation of OVCAR3^cisA cells by PMN treated with S100A8/A9 or NE, effect of FGFR blockade ([1]; OVCAR3^cisA) | mice with lung tumor lesions despite exposure to stress ([2]; 30 mg/kg, 3 weeks of stress) | proliferation of KPr^p53A^react cells [3] | proliferation of KPr^p53P cells [3] | proliferation of parental KPr cells [3] | reactivation of LLC^cisA cells by PMN treated with S100A8/A9 or NE, effect of FGFR blockade [4] | reactivation of KPr^p53A cells by PMN treated with S100A8/A9 or NE, effect of FGFR blockade [5] | frequency of tumor lesions in stressed LL2^cisA cell-bearing mice ([2]; 0.15 mg/ml in drinking water during stress induction) | progression-free survival ([6]; patients with prostate cancer, compared to placebo) | disease-free survival ([6]; randomized phase III trial) | overall survival ([6]; randomized phase III trial)
CCN1CCN(c2ccc(Nc3cc(N(C)C(=O)Nc4c(Cl)c(OC)cc(OC)c4Cl)ncn3)cc2)CC1 [BGJ398, infigratinib] | abrogated their reactivation by PMN treated with S100A8/A9 or NE | abrogated their reactivation by PMN treated with S100A8/A9 or NE | 0 of 4 | abrogated cell proliferation | did not affect proliferation of tumor cells | did not affect proliferation of tumor cells | abrogated their reactivation by PMN treated with S100A8/A9 or NE | abrogated their reactivation by PMN treated with S100A8/A9 or NE | – | – | – | –
COc1cccc2c1c(O)c(C(=O)N(C)c1ccc(C(F)(F)F)cc1)c(=O)n2C [tasquinimod] | – | – | – | – | – | – | – | – | significantly (P=0.007) reduced frequency of tumor lesions; also recorded: reverting the stress-induced reactivation of dormant tumor cells in mice | prolonged progression-free survival compared to placebo | increased disease-free survival | did not affect overall survival
